Data: PubChem BioAssay AID2060343 (Molecular Pharmacology Branch, DTP, NCI, 2025)

System: 138582-337-R-J1-PDC spheroids with HUVEC/MSC, viability
Test: Anticancer human tumor 138582-337-R-J1-PDC patient-derived Merkel cell tumor cell line growth inhibition [IpAb]
Details: for IC50: curve of first compound; for viability, T/C: stronger effect = lower value
How it was run: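 Multi-cell spheroids of 60% tumour cells, 25% HUVEC and 15% MSC in ultra-low-attachment U-bottom wells, treated with agents combined with ipatasertib or abemaciclib. Half-log ranges top out near clinical Cmax, or 10 microM when Cmax is unknown.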

[1] = second compound 0.01 µM, first compound 0.00316 µM
[2] = second compound 0.01 µM, first compound 0.01 µM
[3] = second compound 0.01 µM, first compound 0.0316 µM
[4] = second compound 0.01 µM, first compound 0.1 µM
[5] = second compound 0.0316 µM, first compound 0.00316 µM
[6] = second compound 0.0316 µM, first compound 0.01 µM
[7] = second compound 0.0316 µM, first compound 0.0316 µM
[8] = second compound 0.0316 µM, first compound 0.1 µM
[9] = second compound 0.1 µM, first compound 0.00316 µM
[10] = second compound 0.1 µM, first compound 0.01 µM
[11] = second compound 0.1 µM, first compound 0.0316 µM
[12] = second compound 0.1 µM, first compound 0.1 µM
[13] = second compound 0.316 µM, first compound 0.00316 µM
[14] = second compound 0.316 µM, first compound 0.01 µM
[15] = second compound 0.316 µM, first compound 0.0316 µM
[16] = second compound 0.316 µM, first compound 0.1 µM
[17] = second compound 1 µM, first compound 0.00316 µM
[18] = second compound 1 µM, first compound 0.01 µM
[19] = second compound 1 µM, first compound 0.0316 µM
[20] = second compound 1 µM, first compound 0.1 µM
[21] = second compound 0.01 µM, first compound 0.316 µM
[22] = second compound 0.01 µM, first compound 1 µM
[23] = second compound 0.01 µM, first compound 3.16 µM
[24] = second compound 0.01 µM, first compound 10 µM
[25] = second compound 0.0316 µM, first compound 0.316 µM
[26] = second compound 0.0316 µM, first compound 1 µM
[27] = second compound 0.0316 µM, first compound 3.16 µM
[28] = second compound 0.0316 µM, first compound 10 µM
[29] = second compound 0.1 µM, first compound 0.316 µM
[30] = second compound 0.1 µM, first compound 1 µM
[31] = second compound 0.1 µM, first compound 3.16 µM
[32] = second compound 0.1 µM, first compound 10 µM
[33] = second compound 0.316 µM, first compound 0.316 µM
[34] = second compound 0.316 µM, first compound 1 µM
[35] = second compound 0.316 µM, first compound 3.16 µM
[36] = second compound 0.316 µM, first compound 10 µM
[37] = second compound 1 µM, first compound 0.316 µM
[38] = second compound 1 µM, first compound 1 µM
[39] = second compound 1 µM, first compound 3.16 µM
[40] = second compound 1 µM, first compound 10 µM
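Further: spheroids exposed to compounds for seven days.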
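Wherever viability, T/C is given: 100% = DMSO vehicle control viability.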

SMILES | IC50 (second compound 0.01 µM) [nM] | IC50 (second compound 0.0316 µM) [nM] | IC50 (second compound 0.1 µM) [nM] | IC50 (second compound 0.316 µM) [nM] | IC50 (second compound 1 µM) [nM] | viability, T/C [3] [%] | viability, T/C [4] [%] | viability, T/C [7] [%] | viability, T/C [8] [%] | viability, T/C [11] [%] | viability, T/C [12] [%] | viability, T/C [15] [%] | viability, T/C [16] [%] | viability, T/C [19] [%] | viability, T/C [20] [%] | viability, T/C [21] [%] | viability, T/C [22] [%] | viability, T/C [25] [%] | viability, T/C [26] [%] | viability, T/C [29] [%] | other results
CC(C)n1nc(-c2ccc3oc(N)nc3c2)c2c(N)ncnc21 + CCN1CCN(Cc2ccc(Nc3ncc(F)c(-c4cc(F)c5nc(C)n(C(C)C)c5c4)n3)nc2)CC1 | 59.8 | 26.9 | 52.9 | > 100 | 69.4 | 58.2 | 42.2 | 47.5 | 38.7 | 55.1 | 43.6 | 53.2 | 50.2 | 52.1 | 48.6 |  |  |  |  |  | viability, T/C (second compound 0.01 µM, first compound 0.000316 µM): 102%; viability, T/C (second compound 0.01 µM, first compound 0.001 µM): 88%; viability, T/C [1]: 73.4%; viability, T/C [2]: 76.5%; viability, T/C (second compound 0.0316 µM, first compound 0.000316 µM): 88%; viability, T/C (second compound 0.0316 µM, first compound 0.001 µM): 74.5%; viability, T/C [5]: 90.8%; viability, T/C [6]: 71%; viability, T/C (second compound 0.1 µM, first compound 0.000316 µM): 93.6%; viability, T/C (second compound 0.1 µM, first compound 0.001 µM): 88.4%; viability, T/C [9]: 78.8%; viability, T/C [10]: 68.1%; viability, T/C (second compound 0.316 µM, first compound 0.000316 µM): 96.5%; viability, T/C (second compound 0.316 µM, first compound 0.001 µM): 96.6%; viability, T/C [13]: 80%; viability, T/C [14]: 56.5%; viability, T/C (second compound 1 µM, first compound 0.000316 µM): 88.8%; viability, T/C (second compound 1 µM, first compound 0.001 µM): 93.5%; viability, T/C [17]: 82.6%; viability, T/C [18]: 61.3%
CC1(C)CCC(CN2CCN(c3ccc(C(=O)NS(=O)(=O)c4ccc(NCC5CCOCC5)c([N+](=O)[O-])c4)c(Oc4cnc5[nH]ccc5c4)c3)CC2)=C(c2ccc(Cl)cc2)C1 + CCN1CCN(Cc2ccc(Nc3ncc(F)c(-c4cc(F)c5nc(C)n(C(C)C)c5c4)n3)nc2)CC1 | > 10000 | > 10000 | > 10000 | > 10000 | > 10000 | 90.6 | 83.3 | 93.3 | 86.7 | 86.5 | 79 | 85 | 90.7 | 88.4 | 86.3 | 79.3 | 83.7 | 86.4 | 78.5 | 85 | viability, T/C [23]: 75.1%; viability, T/C [24]: 83.2%; viability, T/C [27]: 83.3%; viability, T/C [28]: 82.9%; viability, T/C [30]: 80%; viability, T/C [31]: 86.4%; viability, T/C [32]: 89.5%; viability, T/C [33]: 81.7%; viability, T/C [34]: 86.8%; viability, T/C [35]: 90.8%; viability, T/C [36]: 106%; viability, T/C [37]: 75.1%; viability, T/C [38]: 81%; viability, T/C [39]: 83.7%; viability, T/C [40]: 109%
CCCS(=O)(=O)Nc1ccc(F)c(C(=O)c2c[nH]c3ncc(-c4ccc(Cl)cc4)cc23)c1F + CCN1CCN(Cc2ccc(Nc3ncc(F)c(-c4cc(F)c5nc(C)n(C(C)C)c5c4)n3)nc2)CC1 | > 10000 | > 10000 | 7490 | > 10000 | > 10000 | 99.8 | 103 | 97.9 | 96.8 | 93.2 | 87 | 105 | 95 | 99.4 | 93.8 | 95.9 | 98.8 | 96.8 | 97.2 | 93.5 | viability, T/C [23]: 112%; viability, T/C [24]: 81.9%; viability, T/C [27]: 97.8%; viability, T/C [28]: 74.8%; viability, T/C [30]: 101%; viability, T/C [31]: 93.7%; viability, T/C [32]: 35.4%; viability, T/C [33]: 106%; viability, T/C [34]: 90.6%; viability, T/C [35]: 103%; viability, T/C [36]: 78.2%; viability, T/C [37]: 89.1%; viability, T/C [38]: 86.3%; viability, T/C [39]: 94.1%; viability, T/C [40]: 61.1%
COc1c(OCCCN2CCOCC2)ccc2c3n(c(=NC(=O)c4cnc(N)nc4)nc12)CCN3 + CCN1CCN(Cc2ccc(Nc3ncc(F)c(-c4cc(F)c5nc(C)n(C(C)C)c5c4)n3)nc2)CC1 | 48.1 | 42.1 | 43.2 | 42.7 | 31.3 | 58.5 | 33.7 | 56.7 | 35.1 | 55.4 | 32.8 | 57.5 | 31.4 | 56.6 | 18.8 | 15.2 | 1.9 | 14.7 | 1.66 | 11.6 | viability, T/C [1]: 91.8%; viability, T/C [2]: 80.9%; viability, T/C [5]: 93.2%; viability, T/C [6]: 73.2%; viability, T/C [9]: 84.1%; viability, T/C [10]: 76.5%; viability, T/C [30]: 1.67%; viability, T/C [13]: 85.9%; viability, T/C [14]: 74.2%; viability, T/C [33]: 11.8%; viability, T/C [34]: 2.07%; viability, T/C [17]: 98.3%; viability, T/C [18]: 72%; viability, T/C [37]: 5.6%; viability, T/C [38]: 2.69%
